Experimental data as given in PMC10331488, “Targeting apolipoprotein E and N-terminal amyloid β-protein precursor interaction improves cognition and reduces amyloid pathology in Alzheimer’s mice” (The Journal of Biological Chemistry, 2023).
Peptide text beside a SMILES is read from it.

Details: mouse, in vivo, ip
Method: Finally, to examine whether 6KApoEp did enter the brain to interact with APP, we aimed to identify 6KApoEp in vehicle- and 6KApoEp-treated APP/PS1/E2/E3/E4 mouse brains by Western blotting with antibody against LDLR binding domain (residues 133–152) of human apoE that is the analogous epitope as 6KApoEp except for 6K. […] Moreover, we examined the stability of 6KApoEp in the mouse plasma at different incubation times (i.e., 0, 3, 6, 12, and 24 h) at 37 °C by Western blotting using the same antibody.
The right five lanes denote a series of 6KApoEp calibration peptides (i.e., 20, 40, 80, 160, and 320 ng). Brain homogenates were obtained from APP/PS1/E2 mice that received vehicle (APP/PS1/E2-V) or 6KApoEp (APP/PS1/E2-6KApoEp), APP/PS1/E3 mice that received vehicle (APP/PS1/E3-V) or 6KApoEp (APP/PS1/E3-6KApoEp), and APP/PS1/E4 mice that received vehicle (APP/PS1/E4-V) or 6KApoEp (APP/PS1/E4-6KApoEp) for 3 months starting at 12 months of age. B, Western blotting data for the calibration graph were obtained from a series of 6KApoEp calibration peptides (i.e., 20, 40, 80, 160, and 320 ng). […] Western blotting data for (B) included each mouse (n = 4 per group with two of each sex), and quantitative data were averaged. […] D, the experiment was performed four times, and quantitative data were averaged (Table S23). […]

Whole-brain 6KApoEp level relative to the daily dose (7.5 μg): 3.4-6.7 times the daily dose
Structure (SMILES): CC(C)C[C@H](NC(=O)[C@H](CCCNC(=N)N)NC(=O)[C@@H](NC(=O)[C@H](CCCNC(=N)N)NC(=O)[C@H](CC(C)C)NC(=O)[C@H](CCCCN)NC(=O)[C@H](CCCCN)NC(=O)[C@H](CCCCN)NC(=O)[C@H](CCCCN)NC(=O)[C@H](CCCCN)NC(=O)[C@@H](N)CCCCN)C(C)C)C(=O)N[C@@H](C)C(=O)N[C@@H](CO)C(=O)N[C@@H](Cc1c[nH]cn1)C(=O)N[C@@H](CC(C)C)C(=O)N[C@@H](CCCNC(=N)N)C(=O)N[C@@H](CCCCN)C(=O)N[C@@H](CC(C)C)C(=O)N[C@@H](CCCNC(=N)N)C(=O)N[C@@H](CCCCN)C(=O)N[C@@H](CCCNC(=N)N)C(=O)N[C@@H](CC(C)C)C(=O)N[C@@H](CC(C)C)C(=O)N[C@@H](CCCNC(=N)N)C(=O)N[C@@H](CC(=O)O)C(=O)N[C@@H](C)C(=O)O [6KApoEp] (H-KKKKKKLRVRLASHLRKLRKRLLRDA-OH)
